According to patent publication US20220249484A1, “METHODS FOR PREDICTING RESPONSIVENESS OF CANCER TO FERROPTOSIS-INDUCING THERAPIES” (Memorial Sloan Kettering Cancer Center, priority 2019, published 2022):

Experiments:
HCT116 cells [1] = test: Cell density-dependent induction of ferroptosis in HCT116 cells (cell death and lipid ROS by flow cytometry); assay type: cell-based, human; details: 5 μM RSL3; different cell density; cell death 24 h, lipid ROS 16 h
Description: Induction and inhibition of ferroptosis. To induce ferroptosis, cells with different density were seeded in 6-well plates. For cystine-starvation experiments, cells were washed with PBS twice and then cultured in cystine-free medium in the presence of 10% (v/v) dialyzed FBS for the indicated time. The ferroptosis inducing compounds erastin and RSL3 and the ferroptosis inhibitor Ferrostatin-1 were purchased from Sigma-Aldrich (St. Louis, Mo., USA).
Measurement of cell death, cell viability and lipid peroxidation. Cell death was analyzed by propidium iodide (Invitrogen, Waltham, Mass., USA) or SYTOX Green (Invitrogen) staining followed by microscopy or flow cytometry. For 3D spheroids, cell viability was determined using the CellTiter-Glo® 3D Cell Viability Assay (Promega, Madison, Wis., USA) according to the manufacturer's instructions. Viability was calculated by normalizing ATP levels to spheroids treated with normal full media. […]
To test erastin-induced ferroptosis, HCT116 cells with different cell density were treated with 30 μM erastin and quantification of cell death by propidium iodide (PI) staining followed by flow cytometry (after 30 h of erastin treatment). Lipid ROS production was assessed by C11-BODIPY staining followed by flow cytometry (after 24 h of erastin treatment). […]

HCT116 cells [2] = test: Ferroptosis in confluent HCT116 cells expressing shEcad, shMerlin or shLats1/2; assay type: cell-based, human; details: cell death 18 h, lipid ROS 14 h; versus shNT
Description: (§1) Measurement of cell death, cell viability and lipid peroxidation. Cell death was analyzed by propidium iodide (Invitrogen, Waltham, Mass., USA) or SYTOX Green (Invitrogen) staining followed by microscopy or flow cytometry. For 3D spheroids, cell viability was determined using the CellTiter-Glo® 3D Cell Viability Assay (Promega, Madison, Wis., USA) according to the manufacturer's instructions. Viability was calculated by normalizing ATP levels to spheroids treated with normal full media. To analyze lipid peroxidation, cells were stained with 5 μM BODIPY-C11 (Invitrogen) for 30 minutes at 37° C. followed by flow cytometric analysis.
The involvement of the Hippo signaling in the regulation of ferroptosis by cell-cell contact was also assessed. Cells depleted of Ecad, Merlin, or Lats were generated using shRNA technology. HCT116 cells were infected by lentiviruses expressing shRNA sequences targeting Ecad (shEcad), Merlin (shMerlin), or Lats1/2 (shLats1/2), as indicated. Knockdown efficiency was confirmed by Western blot (FIG. 2B). […] Cell death was measured at 30 h using SYTOX Green staining followed by flow cytometry. Lipid ROS was measured at 24 hours using C11-BODIPY staining coupled with flow cytometry. […] Cell death was measured at 18 h and lipid ROS was measured at 14 h (FIG. 11A).

MSTO-211H cells = test: Ferroptosis in confluent MSTO-211H cells (shMerlin, shNcad); assay type: cell-based, human
Description: as §1
To confirm the ferroptosis-regulating role of Merlin in mesothelioma cells, the effect of Merlin knockdown on ferroptosis sensitivity was assessed. MSTO-211H cells were infected with lentiviruses expressing shMerlin. RNAi knockdown efficiency was confirmed by Western blot (FIG. 3F). Then, shNT or shMerlin MSTO-211H cells were cultured to high confluence, at which point they were treated with media containing or lacking cystine, with or without Fer-1 for 24 h. Cell death was measured by SYTOX Green staining followed by flow cytometry (FIG. 3G). To measure lipid reactive species, shNT or shMerlin MSTO-211H cells were treated for 18 h, at which point they were stained with 2 μM C11-BODIPY for lipid ROS measurement (FIG. 311). Confluent MSTO-211H cells expressing shNT or shMerlin were also treated with 1 μM RSL3 with or without […] Fer-1. Cell death (left, 24 h after treatment) and lipid ROS production (right, 16 h) were measured (FIG. 13B).
Therefore, the cell density dependence of ferroptosis is not limited to epithelial cells expressing Ecad. […] To assess the expression of N-cadherin in MSTO-211H mesothelioma cells, the cells were cultivated at different cell densities, and the levels of Ncad, p-YAP and total YAP were analyzed by Western blot. […] Therefore, the potential role of Ncad in ferroptosis was tested. MSTO-211H cells were infected with lentiviruses expressing Ncad shRNA (shNcad) and selected with puromycin.

MEFs = test: Ferroptosis and lipid ROS in MEFs; assay type: cell-based, mouse
Description: as §1
Merlin-regulated ferroptosis in cell density dependent manner was also observed in MEFs, which are not of epithelial origin. Cell death of MEFs with different cell density induced by cystine starvation for 12 h was measured by PI staining (FIG. 15A), and flow cytometry (FIG. 15B). The effect of cystine starvation on lipid ROS production in MEFs cells with different cell density (6 h treatment) is also shown in FIG. 15B. […] As shown in FIGS. 15A-15D, increased cell density mitigated both cell death and lipid ROS generation induced by cystine starvation, erastin and RSL3 in MEFs.
MEFs also regulated the activity of YAP at high density in a Merlin-dependent manner. MEFs seeded at increasing density were probed for YAP localization by Immunofluorescence (FIG. 15E). The effect of Merlin was assessed by infecting MEFs with shMerlin lentivirus and selected with puromycin. […] As shown in FIGS. 15E-15F, with increasing cell confluence, there was an increase of YAP nuclear exclusion in MEFs, which was attenuated by Merlin knockdown.

HCT116 cells [3] = test: RSL3-induced cell death in HCT116 cells overexpressing TFRC and/or ACSL4; assay type: cell-based, human; details: 2 μM RSL3, 24 h; SYTOX Green
Description: To test whether TFRC and ACSL4 can directly enhance ferroptosis in confluent cells, TFRC and ACSL4 separately or in combination were overexpressed. HCT116 cells were transduced with retroviral particles containing mCherry-ACSL4, transfected with TFRC, or both. Expression was assayed by Western blot. Two bands were detected for mCherry-ACSL4, representing the full-length mCherry-ACSL4 and that with mCherry tag truncated (FIG. 17A). Additionally, cells were plated at the indicated density and treated with 2 μM RSL3 for 24 h. Cell death was measured by SYTOX Green staining coupled with flow cytometry.

HCT116 cells [4] = test: Ferroptosis in HCT116 cells expressing PAK-CAAX; assay type: cell-based, human; details: constitutively active PAK-CAAX versus inactive PAK^K298R-CAAX
NF639 cells [5] = test: Expression of EMT-related genes by qPCR after TGF-β; assay type: cell-based, mouse; details: various concentrations of TGF-β, 48 h
Description: RNA extraction and qRT-PCR. RNA was extracted using the TRIzol reagent (Invitrogen). 20% chloroform was added to each sample, vortexed briefly, and incubated at room temperature for 15 min. Samples were then centrifuged at high speed at 4° C. for 15 min. The aqueous phase was moved to a new tube and an equal volume of isopropanol was added. Samples were incubated at room temperature for 10 min, followed by centrifugation at high speed at 4° C. for 10 min. Pellets were washed in 95% ethanol, dried, and resuspended in nuclease-free water. cDNA was synthesized using iScript™ cDNA Synthesis Kit according to the manufacturer's instructions (Bio-Rad). qRT-PCR was performed with IQ™ SYBR® Green Supermix (Bio-Rad) in a CFX Connect Real-Time PCR Detection System (Bio-Rad).
The potential link between epithelial-mesenchymal transition (EMT) and ferroptosis was examined using cells generated from mammary tumors of MMTV-neu mice. NF639 cells, derived from mouse mammary tumors containing MMTV-neu, were treated with various concentrations of TGF-β for 48 h to induce EMT. TGF-β can enhance EMT in cells bearing overactive HER2/neu signaling. Expression of a panel of EMT-related genes was assayed by qPCR as indicated.

NF639 cells [6] = test: Cystine deprivation-induced ferroptosis after TGF-β; assay type: cell-based, mouse; details: 6 ng/μL TGF-β 48 h; 3.2×10^5 cells/3.5 cm^2 well; cystine-free 12 h; untreated cells highly resistant
Description: To determine the effect of TGF-β on cystine deprivation induced ferroptosis, NF639 cells were treated with or without 6 ng/μL TGF-β for 48 h, at which point they were plated at low density (0.8 cells×10^5/3.5 cm^2 well), grown overnight, and treated with media containing or lacking cystine, or lacking cystine with 1 μM ferrostatin-1 for 12 h. NF639 cells were also plated at a high density of 3.2×10^5 cells/3.5 cm^2 well, grown overnight and treated with media containing or lacking cystine, or lacking cystine with 1 μM ferrostatin-1 for 12 h. Cell death was measured by Sytox green staining coupled with flow cytometry.

Molecule: COC(=O)c1ccc([C@@H]2c3[nH]c4ccccc4c3C[C@@H](C(=O)OC)N2C(=O)CCl)cc1 [RSL3]
- RSL3-induced ferroptosis (cell death, lipid ROS) (HCT116 cells [1]): induces HCT116 human colon cancer cells to undergo ferroptosis in a cell density-dependent manner
- RSL3-induced cell death and lipid ROS after knockdown of Ecad, Merlin, Lats1/2 (HCT116 cells [2]): sensitized HCT116 cells to ferroptosis and increased lipid ROS accumulation
- sensitivity of confluent shNcad cells to RSL3 (cell death) (MSTO-211H cells; 1 μM RSL3, 16 h): sensitized these cells to ferroptosis
- sensitivity of confluent shMerlin cells to RSL3 (cell death, lipid ROS) (MSTO-211H cells; 1 μM RSL3, cell death 24 h, lipid ROS 16 h): became sensitive
- RSL3-induced ferroptosis and lipid ROS in MEFs at different densities (MEFs; 1 μM RSL3, ferroptosis 8 h, lipid ROS 5 h): ferroptosis (8 h) and lipid ROS production (5 h) was also observed
- RSL3-induced cell death and lipid ROS in confluent Merlin RNAi MEFs (MEFs; RSL3 1 μM, 8 h): increased cell death and lipid ROS production
- RSL3-induced cell death, confluent cells co-expressing TFRC and ACSL4 (HCT116 cells [3]): further enhanced cell death
- RSL3-induced cell death, confluent cells expressing either TFRC or ACSL4 (HCT116 cells [3]): partially sensitized to ferroptosis
- RSL3-induced ferroptosis in PAK-CAAX expressing cells (HCT116 cells [4]): enhanced RSL3-induced ferroptosis

Molecule: TGF-β
- expression of EMT-related genes (NF639 cells [5]): upregulated the expression of multiple EMT-related genes
- cell death under cystine starvation at high cell density (NF639 cells [6]): died under cystine starvation at high cell density
